According to patent US20250326753A1, “DUAL CXCR4-BTK INHIBITORS” (X4 Pharmaceuticals, Inc., priority 2022, published 2025):

Target: T1, FYN (Homo sapiens, UniProt P06241)
T1 construct: purchased Reaction Biology Europe GmbH
Experiment: PanQinase kinase panel: FYN
Type: biochemical
Conditions: read-out: INHIBITORY EFFECT @ 1 uM: FYN
Description: Screening procedures were performed in accordance with the company's on-line protocol [accessed on-line Mar.
For each kinase, the median value of the cpm of three wells was defined as “low control” (n=3). This value reflects unspecific binding of radioactivity to the plate in the absence of a protein kinase but in the presence of the substrate. Additionally, for each kinase the median value of the cpm of three other wells was taken as the “high control,” i.e. full activity in the absence of any inhibitor (n=3). The difference between high and low control of each enzyme was taken as 100% activity.
As part of the data evaluation the low control of each kinase was subtracted from the high control value as well as from their corresponding “compound values”. The residual activity (in %) for each compound well was calculated by using the following formula: Res. Activity (%)=100×[(signal of compound−low control)/(high control−low control)].

T1 sequence (P06241 whole entry): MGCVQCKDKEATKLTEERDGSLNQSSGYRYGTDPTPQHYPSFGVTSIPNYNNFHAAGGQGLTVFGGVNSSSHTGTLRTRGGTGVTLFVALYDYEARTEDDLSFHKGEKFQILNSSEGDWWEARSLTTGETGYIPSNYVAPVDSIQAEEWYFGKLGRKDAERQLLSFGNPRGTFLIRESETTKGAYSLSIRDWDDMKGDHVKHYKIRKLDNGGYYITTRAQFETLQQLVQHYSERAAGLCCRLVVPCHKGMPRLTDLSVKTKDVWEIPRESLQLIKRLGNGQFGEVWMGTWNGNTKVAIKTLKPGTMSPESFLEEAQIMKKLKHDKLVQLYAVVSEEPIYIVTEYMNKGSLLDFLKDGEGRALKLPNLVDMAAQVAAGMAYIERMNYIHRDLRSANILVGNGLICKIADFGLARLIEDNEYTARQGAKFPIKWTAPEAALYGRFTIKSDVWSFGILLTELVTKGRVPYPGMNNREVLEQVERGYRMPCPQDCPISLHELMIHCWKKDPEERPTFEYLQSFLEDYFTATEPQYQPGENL

## Cc1cccnc1[C@H]1CCC[C@@H](c2ncccc2C)N1CCN1CCN(C(=O)c2ccc(-c3cc4c(-c5cccc(NC(=O)c6ccccc6)c5C)ncnc4[nH]3)cc2)CC1 [Compound I-10, N-(3-(6-(4-(4-(2-((2R,6S)-2,6-bis(3-methylpyridin-2-yl)piperidin-1-yl)ethyl)piperazine-1-carbonyl)phenyl)-7H-pyrrolo[2,3-d]pyrimidin-4-yl)-2-methylphenyl)benzamide]
  inhibition at 1 µM: < 50%

## COc1ccc(F)cc1C(=O)NCc1ccc(-c2nn([C@@H](C)C(F)(F)F)c(N)c2C(N)=O)cc1 [LOXO-305, pirtobrutinib]
  inhibition at 1 µM: < 50%
